Source: ChEMBL document CHEMBL5724914, “Linking interpersonal differences in gut microbiota composition and drug biotransformation activity” (2024)

How the values were obtained:
[1] = (§1) The drug is tested on Z-030 corresponding to mouse gut metagenome with ENA study accession number: PRJEB37062 and ENA sample accession number: ERS12561829 for biotransformation under anaerobic condition. The drug concentrations were measured over 9 timepoints collected between 0 and 24 hours of incubation by liquid-chromatography-coupled mass spectrometry (LC–MS); details: 2 µM
[2] = as §1, with “Z-013” for “Z-030”, “rabbit” for “mouse”, “ERS12561813” for “ERS12561829”; details: 2 µM
[3] = human gut metagenome, 24 h, 2 µM
[4] = as §1, with “Z-020” for “Z-030”, “rabbit” for “mouse”, “ERS12561819” for “ERS12561829”; details: 2 µM
[5] = human gut metagenome, 24 h, 2 µM; remark: listed apart in the source
[6] = human gut metagenome, 24 h, 2 µM; remark: listed apart in the source
[7] = as §1, with “Z-016” for “Z-030”, “ERS12561815” for “ERS12561829”; details: 2 µM
[8] = human gut metagenome, 24 h, 2 µM; remark: listed apart in the source
[9] = human gut metagenome, 24 h, 2 µM; remark: listed apart in the source
[10] = as §1, with “Z-011” for “Z-030”, “ERS12561811” for “ERS12561829”; details: 2 µM
[11] = as §1, with “Z-023” for “Z-030”, “to” for “to mouse gut”, “ERS12561822” for “ERS12561829”; details: 2 µM
[12] = as §1, with “WLS-098” for “Z-030”, “human” for “mouse”, “ERS12561754” for “ERS12561829”; details: 2 µM
[13] = as §1, with “Z-028” for “Z-030”, “ERS12561827” for “ERS12561829”; details: 2 µM
[14] = as §1, with “WLS-077” for “Z-030”, “human” for “mouse”, “ERS12561750” for “ERS12561829”; details: 2 µM
[15] = human gut metagenome, 24 h, 2 µM; remark: listed apart in the source
[16] = human gut metagenome, 24 h, 2 µM; remark: listed apart in the source
[17] = human gut metagenome, 24 h, 2 µM; remark: listed apart in the source
[18] = as §1, with “Z-019” for “Z-030”, “rat” for “mouse”, “ERS12561818” for “ERS12561829”; details: 2 µM
[19] = as §1, with “WLS-007” for “Z-030”, “human” for “mouse”, “ERS12561742” for “ERS12561829”; details: 2 µM
[20] = as §1, with “Z-014” for “Z-030”, “rat” for “mouse”, “ERS12561814” for “ERS12561829”; details: 2 µM
Further: call rule not given here.

SMILES	Bacterial Biotransformation [1]	Bacterial Biotransformation [2]	Bacterial Biotransformation [3]	Bacterial Biotransformation [4]	Bacterial Biotransformation [5]	Bacterial Biotransformation [6]	Bacterial Biotransformation [7]	Bacterial Biotransformation [8]	Bacterial Biotransformation [9]	Bacterial Biotransformation [10]	Bacterial Biotransformation [11]	Bacterial Biotransformation [12]	Bacterial Biotransformation [13]	Bacterial Biotransformation [14]	Bacterial Biotransformation [15]	Bacterial Biotransformation [16]	Bacterial Biotransformation [17]	Bacterial Biotransformation [18]	Bacterial Biotransformation [19]	Bacterial Biotransformation [20]
Cc1ccc(-c2cc(C(F)(F)F)nn2-c2ccc(S(N)(=O)=O)cc2)cc1 [CELECOXIB]	Compound NOT metabolized	Compound NOT metabolized	Compound metabolized	Compound NOT metabolized	Compound metabolized	Compound metabolized	Compound NOT metabolized	Compound metabolized	Compound metabolized	Compound NOT metabolized	Compound NOT metabolized	Compound NOT metabolized	Compound NOT metabolized	Compound metabolized	Compound NOT metabolized	Compound metabolized	Compound metabolized	Compound NOT metabolized	Compound metabolized	Compound NOT metabolized
Clc1ccc(Cn2c(CN3CCCC3)nc3ccccc32)cc1 [CLEMIZOLE]	Compound NOT metabolized	Compound metabolized	Compound metabolized	Compound NOT metabolized	Compound NOT metabolized	Compound metabolized	Compound NOT metabolized	Compound metabolized	Compound metabolized	Compound NOT metabolized	Compound metabolized	Compound metabolized	Compound NOT metabolized	Compound NOT metabolized	Compound metabolized	Compound metabolized	Compound metabolized	Compound NOT metabolized	Compound metabolized	Compound NOT metabolized
CN1CCN(C2=Nc3cc(Cl)ccc3Nc3ccccc32)CC1 [CLOZAPINE]	Compound NOT metabolized	Compound NOT metabolized	Compound metabolized	Compound NOT metabolized	Compound NOT metabolized	Compound metabolized	Compound NOT metabolized	Compound NOT metabolized	Compound NOT metabolized	Compound NOT metabolized	Compound metabolized	Compound metabolized	Compound NOT metabolized	Compound NOT metabolized	Compound NOT metabolized	Compound metabolized	Compound metabolized	Compound NOT metabolized	Compound NOT metabolized	Compound NOT metabolized
COc1cc2c(c(OC)c1OC)-c1ccc(OC)c(=O)cc1[C@@H](NC(C)=O)CC2 [COLCHICINE]	Compound NOT metabolized	Compound NOT metabolized	Compound NOT metabolized	Compound NOT metabolized	Compound metabolized	Compound metabolized	Compound metabolized	Compound NOT metabolized	Compound metabolized	Compound NOT metabolized	Compound metabolized	Compound NOT metabolized	Compound NOT metabolized	Compound metabolized	Compound NOT metabolized	Compound metabolized	Compound NOT metabolized	Compound NOT metabolized	Compound metabolized	Compound NOT metabolized
CC(=O)OCC(=O)[C@@]12N=C(C)O[C@@H]1C[C@H]1[C@@H]3CCC4=CC(=O)C=C[C@]4(C)[C@H]3[C@@H](O)C[C@@]12C [DEFLAZACORT]	Compound metabolized	Compound metabolized	Compound metabolized	Compound metabolized	Compound metabolized	Compound metabolized	Compound metabolized	Compound metabolized	Compound metabolized	Compound metabolized	Compound metabolized	Compound metabolized	Compound metabolized	Compound metabolized	Compound metabolized	Compound metabolized	Compound metabolized	Compound NOT metabolized	Compound metabolized	Compound metabolized
CN(C)CC(c1ccc(O)cc1)C1(O)CCCCC1.O=C(O)CCC(=O)O (stereo not given) [DESVENLAFAXINE SUCCINATE]	Compound NOT metabolized	Compound NOT metabolized	Compound NOT metabolized	Compound NOT metabolized	Compound NOT metabolized	Compound NOT metabolized	Compound NOT metabolized	Compound NOT metabolized	Compound NOT metabolized	Compound NOT metabolized	Compound NOT metabolized	Compound NOT metabolized	Compound NOT metabolized	Compound NOT metabolized	Compound NOT metabolized	Compound NOT metabolized	Compound NOT metabolized	Compound NOT metabolized	Compound NOT metabolized	Compound NOT metabolized
CN1CCN(C(=O)O[C@H]2c3nccnc3C(=O)N2c2ccc(Cl)cn2)CC1 [ESZOPICLONE]	Compound NOT metabolized	Compound NOT metabolized	Compound NOT metabolized	Compound NOT metabolized	Compound NOT metabolized	Compound NOT metabolized	Compound NOT metabolized	Compound NOT metabolized	Compound NOT metabolized	Compound NOT metabolized	Compound NOT metabolized	Compound NOT metabolized	Compound NOT metabolized	Compound NOT metabolized	Compound NOT metabolized	Compound NOT metabolized	Compound NOT metabolized	Compound NOT metabolized	Compound NOT metabolized	Compound NOT metabolized
O=C1[C@H](CC[C@H](O)c2ccc(F)cc2)[C@@H](c2ccc(O)cc2)N1c1ccc(F)cc1 [EZETIMIBE]	Compound NOT metabolized	Compound NOT metabolized	Compound metabolized	Compound NOT metabolized	Compound NOT metabolized	Compound NOT metabolized	Compound NOT metabolized	Compound NOT metabolized	Compound NOT metabolized	Compound NOT metabolized	Compound metabolized	Compound metabolized	Compound NOT metabolized	Compound metabolized	Compound NOT metabolized	Compound metabolized	Compound metabolized	Compound NOT metabolized	Compound metabolized	Compound NOT metabolized
